Test [1] deals with Ras. As to the kind of experiment: Ras activation pull-down assay (Raf1 Ras binding domain) in MDA-MB-231 cells. It counts as cell-based, human. As to conditions: 0.5% serum. As to the method: In FIG. 14A, MDA-MB-231 cells were plated and then placed in media containing 0.5% media 24 hr later. 24 hr later, the cells were treated with either DMSO or honokiol (20 μM) as indicated for 2 hr. At this point the cells were harvested and lysates were prepared and treated with the immobilized Ras binding domain of Raf1 as in FIGS. 12A-C. Ras-GTP bound to the Raf1 binding domain was recovered and subjected to Western blot analysis using the Pan-Ras antibody. Total Ras in the cell lysates and actin levels were also examined by Western blot analysis. In FIG. 14B, MDA-MB-231 cells were plated and 24 hr later were shifted to media containing 0.5% serum. The cells were then treated with EGF (200 ng/ml) for 10 min. The cells were also treated with honokiol (20 μM) prior to the addition of EGF for the times indicated. The levels of GTP-bound Ras, total Ras, and actin were then determined as in FIG. 14A. […] Cells were then collected and Ras activation was determined using the pull-down assay as above. Levels of Ras-GTP, Sos, and Ras were determined by Western blot analysis using an antibody that recognized HA. […] Cells were then stimulated with 100 ng/ml EGF for the indicated times (min) and Ras activation was determined as in FIG. 14A. […] Cells were then stimulated with 100 ng/ml EGF for the indicated times (min) and Ras activation was determined as in FIG. 14A. […]

In test [2] the test system is Ras. Kind of test: Ras activation pull-down assay in Cos1 cells transfected with HA-tagged Ras and Sos. It counts as cell-based. As to the method:
In FIG. 14A, MDA-MB-231 cells were plated and then placed in media containing 0.5% media 24 hr later. 24 hr later, the cells were treated with either DMSO or honokiol (20 μM) as indicated for 2 hr. At this point the cells were harvested and lysates were prepared and treated with the immobilized Ras binding domain of Raf1 as in FIGS. 12A-C. Ras-GTP bound to the Raf1 binding domain was recovered and subjected to Western blot analysis using the Pan-Ras antibody. Total Ras in the cell lysates and actin levels were also examined by Western blot analysis. In FIG. 14B, MDA-MB-231 cells were plated and 24 hr later were shifted to media containing 0.5% serum. The cells were then treated with EGF (200 ng/ml) for 10 min. The cells were also treated with honokiol (20 μM) prior to the addition of EGF for the times indicated. The levels of GTP-bound Ras, total Ras, and actin were then determined as in FIG. 14A. In FIG. 14C, Cos1 cells were transfected with plasmids expressing HA-tagged Ras (50 ng) and Sos (500 ng) for 24 hours. The cells were placed in serum free media overnight in the presence of increasing concentration of honokiol. Cells were then collected and Ras activation was determined using the pull-down assay as above. Levels of Ras-GTP, Sos, and Ras were determined by Western blot analysis using an antibody that recognized HA. In FIG. 14D, Cos1 cells were tranfected with the plasmid expressing HA-tagged Ras (50 ng) for 24 hours. […] Cells were then stimulated with 100 ng/ml EGF for the indicated times (min) and Ras activation was determined as in FIG. 14A. […] Cells were then stimulated with 100 ng/ml EGF for the indicated times (min) and Ras activation was determined as in FIG. 14A. […]
To further establish that honokiol was suppressing Ras activation, the effect in Cos1 cells was examined where background Ras activation was lower. […] 24 hr later, the cells were then shifted to serum-free conditions in the presence of increasing concentrations of honokiol and the levels of Ras, Sos, and GTP-bound Ras was evaluated. […]

Test [3] concerns MDA-MB-231 human breast cancer cells. Particulars: Wolf et al. 2007; cited from earlier work.
Another test concerns tumor growth. As to conditions: Bai et al. 2003; cited from earlier work.
Another test deals with 786-0 cells. Kind of test: Apoptosis in 786-O cells. It counts as cell-based, human.

Each structure is given as a SMILES string.

Experimental for 786-0 cells: Cell viability was determined by trypan blue exclusion. After various treatments, cells were harvested, washed, and treated with trypan blue at a concentration of 0.4% w/v. After 10 min, trypan blue uptake (dead cells) was determined by counting on a hemocytometer. […] The effect of honokiol on cell viability and cleavage of the caspase 3 substrate poly-(ADP-ribose) polymerase (“PARP”)—an indicator of apoptotic cell death—was examined in the MDA-MB-231 and 786-0 cells. The effect of honokiol on cell viability and PARP cleavage in 0.5% serum was examined after 4 hr and 24 hr honokiol treatment and in 10% serum after 24 hr honokiol treatment in the MDA-MB-231 cells.

With `C=CCc1ccc(O)c(-c2ccc(O)c(CC=C)c2)c1` [honokiol, Honokiol], the “Ras activation induced by EGF” value in the test with Ras [1] (honokiol 20 μM before EGF 200 ng/ml 10 min) is “suppressed”. For the same molecule, in the test with Ras [1] (honokiol 20 μM, 2 hr, effect small, but reproducible), the “level of GTP-bound Ras” value is given as “suppressed”. In addition, the Ras-GTP levels entry in the test on Ras [2] (Cos1 cells with excess Sos, serum free overnight, at concentrations of 20 μM and higher) was “strongly suppressed”. Moreover, the “ability of EGF to increase the level of GTP-bound Ras” value in the test with Ras [2] (Cos1 cells, endogenous Sos, ectopic Ras, honokiol 50 μM, EGF 100 ng/ml) is given as “suppressed”. The “effect on EGF-induced Ras activation when ectopically expressed Sos was introduced” value in the test with Ras [2] (Cos1 cells, honokiol 50 μM, EGF 100 ng/ml) is on record as “more pronounced”. The “growth of MDA-MB-231 cells in mouse xenograft” value in test [3] is on record as “suppress the growth”. Moreover, in the test with tumor growth, the “tumor growth in mouse xenografts” value was “blocked tumor growth”. Also, the apoptosis result with 786-0 cells was “induced apoptosis”.
